Results published in article PMC12491701, “Discovery of an APP-selective BACE1 inhibitor for Alzheimer's disease” (Neurotherapeutics, 2025).
In brackets after ≈: the same amount, converted by molar mass. Entries after “also recorded” stand apart in the source; their conditions may differ.

What was measured:
[1] = target: T1, BACE2 (Homo sapiens, UniProt Q9Y5Z0); assay: BACE2 activity assay; type: biochemical
T1 construct: purchased R&D Systems 4097-AS
T1 sequence (Q9Y5Z0 63-518): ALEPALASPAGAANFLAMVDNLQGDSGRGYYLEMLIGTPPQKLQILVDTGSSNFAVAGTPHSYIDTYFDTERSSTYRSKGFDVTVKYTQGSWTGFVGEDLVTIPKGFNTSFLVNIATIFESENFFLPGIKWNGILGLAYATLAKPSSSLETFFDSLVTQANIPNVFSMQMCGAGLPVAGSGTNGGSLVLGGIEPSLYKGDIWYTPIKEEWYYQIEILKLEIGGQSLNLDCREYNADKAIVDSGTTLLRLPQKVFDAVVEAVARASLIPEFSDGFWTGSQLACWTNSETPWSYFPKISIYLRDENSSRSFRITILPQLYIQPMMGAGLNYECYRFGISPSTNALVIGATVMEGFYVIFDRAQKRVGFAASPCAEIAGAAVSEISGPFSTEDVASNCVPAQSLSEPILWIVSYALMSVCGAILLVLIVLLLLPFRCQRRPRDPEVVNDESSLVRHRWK
Protocol: The effects of candidate ASBIs on BACE2 activity was assessed using the R&D Systems BACE2 activity assay kit (Catalog #: 4097-AS and ES010) formatted from to the manufacturers. For the assay, 4 μL of assay buffer was added to each well, followed by 2 μL of BACE2 diluted in assay buffer to 10 ng/µL.
Then, 2 μL of inhibitor, at the appropriate concentrations were added to the wells and incubated for 30 minutes at room temperature. For all dilutions of inhibitor, drug stock solutions of 10 mM in DMSO were diluted to 50 μM in water; subsequent dilutions were in 0.5% DMSO. Afterwards, 2 μL of fluorogenic BACE2 substrate, diluted to 50 μM in assay buffer, were added to each well, after which the signal generated was read every 30 minutes at 25 °C for 2 hr (Fig S2).
(§1) FAH65 and its enantiomers at 10 mM in 100% DMSO was diluted in PBS pH 7.4 to 100, 10, 1, and 0.1 µM; plus, a vehicle-only control. The solutions were incubated at 37 °C for 90 min and centrifuged at 16K x g for 5 min. An aliquot of each supernatant was analyzed by LC-MS/MS. A standard curve was generated by plotting the known amount of analyte per standard in DMSO vs. chromatographic peak […]
(§2) Kinetic solubility (µM) was calculated using the trendline equation with maximum chromatographic peak area observed in the aqueous sample. (Table S3)
Liver microsome stability assay […]

[2] = PK of FAH65E(-) in ApoE4-TR:5xFAD mice; type: in vivo, mouse; settings: 30 mkd oral, from brain Fu
Protocol: A PK/PD study of FAH65E(-) hydrochloride was performed using ApoE4-TR:5xFAD mice that express APOE4 under the control of the endogenous mouse APOE promoter crossed to 5xFAD mice (Tg6799) which co-express five FAD mutations (APP K670 N/M671L + I716V + V717I and PS1 M146L + L286V) under the control of the neuron-specific mouse Thy-1 promoter. The resulting mice, on a 97 % C57Bl/6J and 3 % SJL background, are homozygous for APOE4 and hemizygous for the 5XFAD transgenes. Both male and female mice 6–8 months of age were used. Mice received two doses (a.m. and p.m.) of 30 mg/kg FAH65E(-) by oral gavage on day 1; on day 2, after a single dose (a.m.) mice were euthanized at 1, 2, 4 and 6 h, n = 3 per time point. FAH65 and sAPPβ levels in brain were determined in brain tissue by LC-MS (see Supplementary Methods) and ELISA , respectively.

[3] = Pilot PK of FAH65 vs. verubecestat in rats; type: in vivo, rat; settings: oral gavage, 30 mg/kg
[4] = target: eAPP (Homo sapiens, UniProt P05067); assay: APP binding by surface plasmon resonance (SPR); settings: SPR, in words
Sequence of eAPP (P05067 18-701): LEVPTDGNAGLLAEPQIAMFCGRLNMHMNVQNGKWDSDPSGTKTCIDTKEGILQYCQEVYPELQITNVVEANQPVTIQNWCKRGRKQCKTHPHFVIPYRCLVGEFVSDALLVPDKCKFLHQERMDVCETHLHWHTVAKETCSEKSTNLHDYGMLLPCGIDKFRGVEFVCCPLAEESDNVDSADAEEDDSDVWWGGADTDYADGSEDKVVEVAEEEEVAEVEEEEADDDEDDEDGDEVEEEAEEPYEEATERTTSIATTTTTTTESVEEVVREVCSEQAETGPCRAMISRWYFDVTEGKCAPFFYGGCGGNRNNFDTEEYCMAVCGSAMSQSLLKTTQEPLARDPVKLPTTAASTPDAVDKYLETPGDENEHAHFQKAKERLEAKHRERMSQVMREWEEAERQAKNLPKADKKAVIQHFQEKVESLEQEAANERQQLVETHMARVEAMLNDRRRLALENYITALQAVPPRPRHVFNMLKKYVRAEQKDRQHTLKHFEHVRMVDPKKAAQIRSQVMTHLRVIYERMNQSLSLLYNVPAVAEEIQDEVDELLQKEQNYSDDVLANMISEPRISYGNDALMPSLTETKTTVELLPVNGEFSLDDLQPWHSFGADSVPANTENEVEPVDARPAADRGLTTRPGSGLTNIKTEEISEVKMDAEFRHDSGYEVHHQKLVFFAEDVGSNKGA
Protocol: The interaction of FAH3, 17 and 65 were evaluated using the SPR protocol described previously in Descamps et al., [26].
For these pilot experiments eAPP as described in Descamps et al (26) is crosslinked to a the CM5 Biacore chip. FAH3 at various concentration was used in the flow through the chip, and the plasmon resonance signal was determined using a Biacore T100. The raw data uncorrected for contribution of running buffer is fit to equilibrium binding data and corrected for the contribution of the running buffer to
For FAH17 and FAH65-APP binding was determined using SPR to determine competition with BSA that non-specifically binds to the eAPP-Biacore chip.

[5] = Kinetic solubility assay; type: physicochemical; settings: aqueous buffer, kinetic from dmso stock, PBS pH 7.4, 37 °C
Protocol: as §1, §2
Liver microsome stability assay
A 1 µL sample of 1 mM FAH65 and its enantiomers in 100% DMSO was added to 1 mL of 0.5 mg/mL human liver microsomes (Thermo Fisher Scientific, Cat# HMMPL) in PBS pH 7.4, 2 mM NADPH, and 2 mM MgCl2; and incubated at 37 °C for 120 min. Aliquots (50 µL) of the microsome solution were taken […]
quenching solution containing an internal standard. Solutions were clarified by centrifugation (16K x g, 5 min) and supernatants transferred to new tubes and lyophilized. Samples were reconstituted in 100 µL of 50/50/0.1 water/acetonitrile/formic acid prior to analysis via LC-MS/MS. […]
One µL FAH65 and its enantiomers (1 mM in 100% DMSO) was added to human peripheral blood plasma (Cat#70039, Stemcell Technologies Inc) diluted 2-fold in PBS (1000 µL, pH 7.4) and incubated […]

IC50 [1]: > 1 µM
Unbound brain concentration at Cmax [2]: 9.6 nM
Cmax ([3]; both sexes, Sprague-Dawley, rat, brain): 182 ng/g
time of brain Cmax [3]: 2 h
binding to eAPP [4]: relative to BSA but no KD
solubility kinetic at 90 min [5]: 88 µM (≈ 37.3 µg/mL)
Compound: Cc1cc(C2(c3cccc(-c4cncnc4)c3)N=C(N)N(C)C2=O)ccc1OC(F)F (stereo not shown) [FAH65]
inhibition of BACE2 activity ([1]; in words): no inhibition; also recorded: did not inhibit
